Assay results as given in BindingDB's records for doi:10.1016/s0960-894x(01)00080-4 (Novartis Pharma Research, 2001).
pIC50: −log10 of the molar value.

Target: Epidermal growth factor receptor (Homo sapiens) (UniProt P00533)
Assay: Tested for inhibitory activity against Epidermal growth factor receptor

Epidermal growth factor receptor (Homo sapiens), sequence (P00533 whole entry, looked up): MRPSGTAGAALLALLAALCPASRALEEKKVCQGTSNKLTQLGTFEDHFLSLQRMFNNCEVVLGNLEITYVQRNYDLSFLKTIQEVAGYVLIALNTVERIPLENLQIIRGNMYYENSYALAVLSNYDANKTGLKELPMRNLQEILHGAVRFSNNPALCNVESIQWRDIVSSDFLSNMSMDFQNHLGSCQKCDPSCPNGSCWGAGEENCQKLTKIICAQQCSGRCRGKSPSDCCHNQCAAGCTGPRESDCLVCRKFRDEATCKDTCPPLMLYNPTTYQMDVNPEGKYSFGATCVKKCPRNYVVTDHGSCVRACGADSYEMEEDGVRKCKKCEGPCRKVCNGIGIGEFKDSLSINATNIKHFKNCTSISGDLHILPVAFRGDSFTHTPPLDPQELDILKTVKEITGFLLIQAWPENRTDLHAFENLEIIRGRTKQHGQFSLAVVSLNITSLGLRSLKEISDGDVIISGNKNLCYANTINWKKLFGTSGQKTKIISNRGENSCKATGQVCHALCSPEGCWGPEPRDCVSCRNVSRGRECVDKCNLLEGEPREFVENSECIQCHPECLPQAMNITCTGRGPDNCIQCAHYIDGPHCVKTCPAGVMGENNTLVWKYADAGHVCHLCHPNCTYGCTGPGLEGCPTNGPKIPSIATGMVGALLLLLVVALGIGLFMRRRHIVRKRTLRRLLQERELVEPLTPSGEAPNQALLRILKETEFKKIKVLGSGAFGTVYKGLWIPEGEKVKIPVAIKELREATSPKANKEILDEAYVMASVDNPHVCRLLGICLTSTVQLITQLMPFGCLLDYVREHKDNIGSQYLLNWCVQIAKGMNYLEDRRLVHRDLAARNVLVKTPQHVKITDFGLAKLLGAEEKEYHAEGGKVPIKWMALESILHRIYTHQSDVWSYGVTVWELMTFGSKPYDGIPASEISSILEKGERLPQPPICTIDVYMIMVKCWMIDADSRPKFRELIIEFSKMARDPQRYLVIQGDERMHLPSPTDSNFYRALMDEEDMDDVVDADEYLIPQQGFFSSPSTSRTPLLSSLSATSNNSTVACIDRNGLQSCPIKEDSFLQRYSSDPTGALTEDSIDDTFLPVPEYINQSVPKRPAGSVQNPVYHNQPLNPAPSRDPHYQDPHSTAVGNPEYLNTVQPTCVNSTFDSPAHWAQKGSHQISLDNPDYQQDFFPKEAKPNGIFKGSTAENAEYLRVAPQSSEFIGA

Row | Compound | pIC50
1 | CN(C)C(=O)CN1CCC(n2cc(-c3cccc(O)c3)c3c(N)ncnc32)CC1 [2-{4-[4-Amino-5-(3-hydroxy-phenyl)-pyrrolo[2,3-d]pyrimidin-7-yl]-piperidin-1-yl}-N,N-dimethyl-acetamide] | 6.40
2 | COCCNCCN1CCC(n2cc(-c3cccc(OC)c3)c3c(N)ncnc32)CC1 [7-{1-[2-(2-Methoxy-ethylamino)-ethyl]-piperidin-4-yl}-5-(3-methoxy-phenyl)-7H-pyrrolo[2,3-d]pyrimidin-4-ylamine] | 6.21
3 | Nc1ncnc2c1c(-c1cccc(O)c1)cn2C1CCN(CCO)CC1 [3-(4-amino-7-(1-(2-hydroxyethyl)piperidin-4-yl)-7H-pyrrolo[2,3-d]pyrimidin-5-yl)phenol] | 6.44

Molecules with a higher pIC50, results first:

Row | pIC50 | Compound
4 | 6.47 | COc1cccc(-c2cn(C3CCN(CCN(C)CCO)CC3)c3ncnc(N)c23)c1 [2-((2-(4-(4-amino-5-(3-methoxyphenyl)-7H-pyrrolo[2,3-d]pyrimidin-7-yl)piperidin-1-yl)ethyl)(methyl)amino)ethanol]
5 | 6.54 | COC(=O)CN1CCC(n2cc(-c3cccc(O)c3)c3c(N)ncnc32)CC1 [{4-[4-Amino-5-(3-hydroxy-phenyl)-pyrrolo[2,3-d]pyrimidin-7-yl]-piperidin-1-yl}-acetic acid methyl ester]
